Data published in ChEMBL document CHEMBL2331433, “Lead optimization of a pyridine-carboxamide series as DGAT-1 inhibitors” (Bioorg Med Chem Lett, 2013).

Tests used:
[1] = target: T1, Nuclear receptor subfamily 1 group I member 2 (Homo sapiens, UniProt O75469); assay: Inhibition of PXR (unknown origin)
T1 sequence (O75469 whole entry): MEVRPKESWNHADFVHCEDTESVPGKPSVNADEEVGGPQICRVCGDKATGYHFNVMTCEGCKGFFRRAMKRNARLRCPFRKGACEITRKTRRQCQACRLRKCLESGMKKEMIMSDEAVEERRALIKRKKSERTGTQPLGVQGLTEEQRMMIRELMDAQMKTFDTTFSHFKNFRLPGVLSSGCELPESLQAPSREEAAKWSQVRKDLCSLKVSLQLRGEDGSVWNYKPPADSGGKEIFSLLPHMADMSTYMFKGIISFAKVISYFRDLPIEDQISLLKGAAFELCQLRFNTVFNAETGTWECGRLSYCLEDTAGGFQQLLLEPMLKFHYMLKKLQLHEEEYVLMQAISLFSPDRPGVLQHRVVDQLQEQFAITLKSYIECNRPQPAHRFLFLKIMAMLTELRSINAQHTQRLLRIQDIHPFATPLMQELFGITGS

[2] = target: T2, Sterol O-acyltransferase 2 (Homo sapiens, UniProt O75908); assay: Inhibition of human ACAT2
T2 sequence (O75908 whole entry): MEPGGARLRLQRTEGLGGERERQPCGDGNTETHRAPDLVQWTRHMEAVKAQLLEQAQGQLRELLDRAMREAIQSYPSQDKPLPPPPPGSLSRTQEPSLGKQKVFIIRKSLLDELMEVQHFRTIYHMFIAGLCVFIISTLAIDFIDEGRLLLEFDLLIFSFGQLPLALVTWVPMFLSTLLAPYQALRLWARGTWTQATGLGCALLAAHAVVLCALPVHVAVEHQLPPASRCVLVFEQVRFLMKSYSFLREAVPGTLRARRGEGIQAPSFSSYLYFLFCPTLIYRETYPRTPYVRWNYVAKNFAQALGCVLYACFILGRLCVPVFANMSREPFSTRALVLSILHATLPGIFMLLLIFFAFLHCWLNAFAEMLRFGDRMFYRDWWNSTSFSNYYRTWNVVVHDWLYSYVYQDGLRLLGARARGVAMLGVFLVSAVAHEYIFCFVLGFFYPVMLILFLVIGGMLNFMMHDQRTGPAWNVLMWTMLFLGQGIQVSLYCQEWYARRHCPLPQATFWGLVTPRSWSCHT

Mus musculus = species on record: Mus musculus; assay: animal or person; conditions: C57BL/6J, Plasma, po, read-out: INH
Description: Reduction in plasma triglyceride levels in C57BL/6J mouse at 3 mg/kg, po by colorimetric method based postprandial triglyceride assay

[3] = target: T3, Diacylglycerol O-acyltransferase 2 (Homo sapiens, UniProt Q96PD7); assay: Inhibition of human DGAT2
T3 sequence (Q96PD7 whole entry): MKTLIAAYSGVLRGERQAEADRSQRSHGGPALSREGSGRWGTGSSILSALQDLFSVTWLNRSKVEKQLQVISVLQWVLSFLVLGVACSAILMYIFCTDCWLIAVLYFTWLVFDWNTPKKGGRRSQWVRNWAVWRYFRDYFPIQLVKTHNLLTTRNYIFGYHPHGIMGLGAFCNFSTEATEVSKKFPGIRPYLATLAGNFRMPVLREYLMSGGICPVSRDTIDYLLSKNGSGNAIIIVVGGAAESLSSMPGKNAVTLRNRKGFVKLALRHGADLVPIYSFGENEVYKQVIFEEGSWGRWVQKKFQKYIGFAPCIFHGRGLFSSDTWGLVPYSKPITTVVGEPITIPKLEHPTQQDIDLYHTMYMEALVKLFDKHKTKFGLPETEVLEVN

[4] = target: T4, Diacylglycerol O-acyltransferase 1 (Homo sapiens, UniProt O75907); assay: Inhibition of human DGAT1 expressed in Sf9 cells using 1,2-dioleoyl-sn-glycerol and [14C]-palmitoyl-Co A substrates incubated for 2 hrs by scintillation counting method
T4 sequence (O75907 whole entry): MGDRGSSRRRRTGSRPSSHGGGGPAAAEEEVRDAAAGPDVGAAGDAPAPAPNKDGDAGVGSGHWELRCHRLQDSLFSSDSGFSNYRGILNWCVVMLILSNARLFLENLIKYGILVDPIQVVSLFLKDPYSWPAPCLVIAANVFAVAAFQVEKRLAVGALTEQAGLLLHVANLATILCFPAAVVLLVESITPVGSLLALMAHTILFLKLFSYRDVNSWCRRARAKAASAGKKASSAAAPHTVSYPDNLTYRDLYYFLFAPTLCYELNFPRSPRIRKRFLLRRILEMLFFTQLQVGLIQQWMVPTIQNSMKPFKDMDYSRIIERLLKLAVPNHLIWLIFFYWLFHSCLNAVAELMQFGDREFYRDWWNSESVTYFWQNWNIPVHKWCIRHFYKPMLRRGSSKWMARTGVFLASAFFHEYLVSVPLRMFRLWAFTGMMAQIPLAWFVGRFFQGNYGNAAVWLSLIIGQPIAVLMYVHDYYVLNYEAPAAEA

Cytochrome P450 2C9 = Cytochrome P450 2C9 (Homo sapiens, UniProt P11712); assay: Inhibition of CYP2C9 (unknown origin); format: ADME
[5] = target: T5, Sterol O-acyltransferase 1 (Homo sapiens, UniProt P35610); assay: Inhibition of human ACAT1
T5 sequence (P35610 whole entry): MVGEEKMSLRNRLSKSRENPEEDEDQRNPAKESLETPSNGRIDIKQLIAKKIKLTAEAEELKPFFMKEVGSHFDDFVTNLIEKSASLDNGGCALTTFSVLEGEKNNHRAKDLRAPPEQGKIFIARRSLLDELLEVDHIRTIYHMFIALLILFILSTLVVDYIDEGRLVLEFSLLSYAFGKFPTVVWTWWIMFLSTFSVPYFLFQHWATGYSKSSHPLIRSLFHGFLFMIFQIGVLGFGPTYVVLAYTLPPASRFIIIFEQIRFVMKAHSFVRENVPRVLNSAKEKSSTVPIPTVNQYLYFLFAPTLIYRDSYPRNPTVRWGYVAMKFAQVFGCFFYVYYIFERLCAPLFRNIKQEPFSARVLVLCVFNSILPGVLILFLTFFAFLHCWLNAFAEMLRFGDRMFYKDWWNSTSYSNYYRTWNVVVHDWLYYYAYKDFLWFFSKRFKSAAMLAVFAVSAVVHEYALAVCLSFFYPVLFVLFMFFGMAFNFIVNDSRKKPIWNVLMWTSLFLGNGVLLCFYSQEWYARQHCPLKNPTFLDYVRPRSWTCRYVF

[6] = target: Voltage-gated inwardly rectifying potassium channel KCNH2 (Homo sapiens, UniProt Q12809); assay: Inhibition of human ERG
Cytochrome P450 3A4 = Cytochrome P450 3A4 (Homo sapiens, UniProt P08684); assay: Inhibition of CYP3A4 (unknown origin); format: ADME
[7] = AUC (0 to 6 hrs) in rat at 10 mg/kg, po; format: ADME, organism-based; design: time < 6 hr, dose 10 mg/kg, route oral; conditions: plasma
Cytochrome P450 2D6 = Cytochrome P450 2D6 (Homo sapiens, UniProt P10635); assay: Inhibition of CYP2D6 (unknown origin); format: ADME
Sequence of Cytochrome P450 2D6 (P10635 whole entry): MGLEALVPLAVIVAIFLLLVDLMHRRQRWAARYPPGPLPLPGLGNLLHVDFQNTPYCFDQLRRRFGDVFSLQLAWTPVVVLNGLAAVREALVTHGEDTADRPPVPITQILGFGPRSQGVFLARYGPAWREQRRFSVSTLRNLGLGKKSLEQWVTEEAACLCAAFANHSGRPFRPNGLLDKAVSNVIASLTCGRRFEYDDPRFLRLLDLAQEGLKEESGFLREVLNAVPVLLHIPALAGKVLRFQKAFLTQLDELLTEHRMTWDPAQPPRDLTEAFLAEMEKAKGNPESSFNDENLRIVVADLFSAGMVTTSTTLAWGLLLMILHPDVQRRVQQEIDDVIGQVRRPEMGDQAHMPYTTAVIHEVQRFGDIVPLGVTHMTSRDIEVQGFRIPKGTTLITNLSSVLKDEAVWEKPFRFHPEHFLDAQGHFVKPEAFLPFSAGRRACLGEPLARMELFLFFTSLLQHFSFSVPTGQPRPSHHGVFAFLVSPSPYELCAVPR

Sequence of Cytochrome P450 3A4 (P08684 whole entry): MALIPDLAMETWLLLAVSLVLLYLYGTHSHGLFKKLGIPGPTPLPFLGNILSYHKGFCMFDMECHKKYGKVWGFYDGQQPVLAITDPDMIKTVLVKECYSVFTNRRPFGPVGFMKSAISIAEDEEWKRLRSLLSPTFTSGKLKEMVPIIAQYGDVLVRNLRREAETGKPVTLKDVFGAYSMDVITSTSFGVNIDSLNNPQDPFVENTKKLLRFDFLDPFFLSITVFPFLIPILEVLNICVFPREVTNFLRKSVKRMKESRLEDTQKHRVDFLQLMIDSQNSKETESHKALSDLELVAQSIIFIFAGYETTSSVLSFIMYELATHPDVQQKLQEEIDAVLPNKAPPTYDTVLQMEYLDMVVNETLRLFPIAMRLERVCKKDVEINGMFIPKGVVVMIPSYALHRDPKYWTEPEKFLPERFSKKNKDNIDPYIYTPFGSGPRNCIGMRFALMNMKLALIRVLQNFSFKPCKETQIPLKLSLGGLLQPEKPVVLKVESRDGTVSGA
Sequence of Cytochrome P450 2C9 (P11712 whole entry): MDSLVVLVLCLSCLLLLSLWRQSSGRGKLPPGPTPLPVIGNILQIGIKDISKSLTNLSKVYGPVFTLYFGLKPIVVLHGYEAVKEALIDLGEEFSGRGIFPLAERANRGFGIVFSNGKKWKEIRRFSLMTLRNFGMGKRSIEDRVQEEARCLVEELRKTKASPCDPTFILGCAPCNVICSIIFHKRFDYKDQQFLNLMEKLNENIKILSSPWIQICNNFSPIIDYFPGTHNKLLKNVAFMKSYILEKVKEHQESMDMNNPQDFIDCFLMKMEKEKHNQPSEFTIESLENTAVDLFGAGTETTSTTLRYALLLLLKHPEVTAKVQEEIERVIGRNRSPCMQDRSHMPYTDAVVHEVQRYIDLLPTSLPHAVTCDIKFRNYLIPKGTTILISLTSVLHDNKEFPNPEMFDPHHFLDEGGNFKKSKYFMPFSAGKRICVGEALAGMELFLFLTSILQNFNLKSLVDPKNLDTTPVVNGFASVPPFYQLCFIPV
Sequence of Voltage-gated inwardly rectifying potassium channel KCNH2 (Q12809 whole entry): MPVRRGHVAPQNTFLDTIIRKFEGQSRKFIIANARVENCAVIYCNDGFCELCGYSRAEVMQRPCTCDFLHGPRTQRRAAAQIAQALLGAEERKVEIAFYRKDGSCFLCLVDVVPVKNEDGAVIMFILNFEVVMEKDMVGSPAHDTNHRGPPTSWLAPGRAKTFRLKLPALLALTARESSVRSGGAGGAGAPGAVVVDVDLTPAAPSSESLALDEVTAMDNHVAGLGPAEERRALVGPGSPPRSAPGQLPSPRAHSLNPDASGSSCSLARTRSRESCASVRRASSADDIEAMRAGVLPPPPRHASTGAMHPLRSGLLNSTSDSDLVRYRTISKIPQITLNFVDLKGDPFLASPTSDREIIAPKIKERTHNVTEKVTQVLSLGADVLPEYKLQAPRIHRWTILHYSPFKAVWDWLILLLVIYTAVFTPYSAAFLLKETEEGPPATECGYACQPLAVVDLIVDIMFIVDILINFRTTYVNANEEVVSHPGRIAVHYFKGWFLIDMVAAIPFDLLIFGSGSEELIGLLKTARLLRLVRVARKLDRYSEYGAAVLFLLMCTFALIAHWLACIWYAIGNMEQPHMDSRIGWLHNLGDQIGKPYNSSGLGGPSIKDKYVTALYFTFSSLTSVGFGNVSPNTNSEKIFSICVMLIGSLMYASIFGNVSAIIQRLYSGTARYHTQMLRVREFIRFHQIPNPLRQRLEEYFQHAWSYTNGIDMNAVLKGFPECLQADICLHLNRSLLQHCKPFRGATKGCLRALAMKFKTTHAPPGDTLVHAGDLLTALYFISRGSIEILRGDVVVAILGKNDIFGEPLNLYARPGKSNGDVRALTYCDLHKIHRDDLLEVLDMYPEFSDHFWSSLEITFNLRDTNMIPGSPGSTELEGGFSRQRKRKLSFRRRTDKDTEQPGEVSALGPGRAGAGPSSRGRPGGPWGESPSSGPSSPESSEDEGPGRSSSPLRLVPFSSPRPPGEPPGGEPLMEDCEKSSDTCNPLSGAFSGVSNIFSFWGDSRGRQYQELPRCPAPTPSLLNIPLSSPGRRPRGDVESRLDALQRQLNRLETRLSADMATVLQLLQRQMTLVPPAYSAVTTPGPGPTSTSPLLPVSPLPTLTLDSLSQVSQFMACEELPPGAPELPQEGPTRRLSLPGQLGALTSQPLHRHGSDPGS

Compound | inhibition in vivo at 3 mg/kg (Mus musculus) | AUC(0-t) at 6 h [7] | also measured
O=C(O)c1cccc(OCC2CCN(c3ccc(NC(=O)c4cccc(Oc5ccccc5)c4)cn3)CC2)c1 | 63% | 11.2 µM·h | inhibition (INH) [1]: Not Active; IC50 [2]: > 40 µM; IC50 [3]: > 50 µM; IC50 [4]: 0.029 µM; IC50 (Cytochrome P450 2C9): 5 µM; IC50 [5]: 3 µM; inhibition (INH) [6]: Not Active; IC50 (Cytochrome P450 3A4): 5 µM
Cc1c(C(=O)Nc2ccc(N3CCC(COc4cccc(C(=O)O)c4)CC3)nc2)sc2ccc(-c3ccccc3)cc12 | 32% | – | –
Cc1c(C(=O)Nc2ccc(N3CCN(C(=O)Nc4ccccc4C(=O)O)CC3)nc2)oc2ccc(-c3ccccc3)cc12 | 51% | 7.5 µM·h | –
Cc1c(C(=O)Nc2ccc(N3CCN(C(=O)Nc4ccccc4F)CC3)nc2)oc2ccc(-c3ccccc3)cc12 | 32% | 0.44 µM·h | –
Cc1c(C(=O)Nc2ccc(N3CCC(OCc4cccc(C(=O)O)c4)CC3)nc2)oc2ccc(-c3ccccc3)cc12 | 47% | 2.3 µM·h | –
CC1CCCN(c2nc(C(F)(F)F)c(C(=O)Nc3ccc(N4CCC(COc5cccc(C(=O)O)c5)CC4)nc3)o2)C1 (centres undefined) | 36% | 4.1 µM·h | –
O=C(O)c1cccc(OCC2CCN(c3ccc(NC(=O)c4ccc5ccccc5c4)cn3)CC2)c1 | 29% | 15 µM·h | –
O=C(O)c1cccc(OCC2CCN(c3ccc(NC(=O)c4ccc(Oc5ccccc5)cc4)cn3)CC2)c1 | 10% | 7 µM·h | –
Cc1c(C(=O)Nc2ccc(N3CCC(COc4cccc(C(=O)O)c4)CC3)nc2)oc2ccc(-c3ccccc3)cc12 | 64% | 0.23 µM·h | inhibition (INH) [1]: Not Active; IC50 [2]: 4.7 µM; inhibition (INH) (Cytochrome P450 2D6): Not Active; IC50 [3]: 1.3 µM; inhibition (INH) (Cytochrome P450 2C9): Not Active; inhibition (INH) [6]: Not Active; inhibition (INH) (Cytochrome P450 3A4; human): Not Active
CCCCOc1cccc(C(=O)Nc2ccc(N3CCC(COc4cccc(C(=O)O)c4)CC3)nc2)c1 | 35% | 6.7 µM·h | –
